Test results: patent US10906940B2, “Antimicrobial peptides, pharmaceutical compositions, and methods of use thereof” (priority 2014, dated 2021)
≈ marks a conversion by molar mass, not a printed value. Where two headings read alike, the source gives them in different places.

Assays:
S. aureus 10 = test: microbe, parasite or virus in culture; assay type: cell-based, Staphylococcus aureus
Description: (§1) The same MIC assay as in Example 6 was used to determine the antimicrobial susceptibility of Compound A, L-form (FIG. 15), and several variants. One variant was Compound A, D-form, with D-Lysine at position 7. Compound B is a variant in the fatty acid chain, with a fatty acid chain composition of C15H29O, and having D-Lys at position 7. Compound C is a variant in the fatty acid chain with a fatty acid chain composition of C11H21O, and having D-Lys at position 7. Variant D is a sequence variant with Phe at position 6 of the cyclic peptide, and having D-Lys at position 7. All variants were chemically synthesized.

S. aureus 12 = test: microbe, parasite or virus in culture; assay type: cell-based, Staphylococcus aureus
Description: as §1

S. aureus 14 = test: microbe, parasite or virus in culture; assay type: cell-based, Staphylococcus aureus
Description: as §1

S. aureus 19 = test: microbe, parasite or virus in culture; assay type: cell-based, Staphylococcus aureus
Description: as §1

S. aureus 2 = test: microbe, parasite or virus in culture; assay type: cell-based, Staphylococcus aureus
Description: as §1

S. aureus 4 = test: microbe, parasite or virus in culture; assay type: cell-based, Staphylococcus aureus
Description: as §1

S. aureus 6 = test: microbe, parasite or virus in culture; assay type: cell-based, Staphylococcus aureus
Description: as §1

S. aureus 8 = test: microbe, parasite or virus in culture; assay type: cell-based, Staphylococcus aureus
Description: as §1

E. faecium ATCC 2320 = test: microbe, parasite or virus in culture; assay type: cell-based; conditions: Enterococcus faecium, ATCC2320
Description: as §1

E. faecium ATCC 700221 = test: microbe, parasite or virus in culture; assay type: cell-based; conditions: Enterococcus faecium, ATCC700221
Description: as §1

E. faecium BAA-2318 = test: microbe, parasite or virus in culture; assay type: cell-based; conditions: Enterococcus faecium, BAA2318
Description: as §1

E. faecalis ATCC 51575 = test: microbe, parasite or virus in culture; assay type: cell-based, Enterococcus faecalis; conditions: Enterococcus faecalis, ATCC51575
Description: as §1

E. faecalis BAA-2365 = test: microbe, parasite or virus in culture; assay type: cell-based, Enterococcus faecalis; conditions: Enterococcus faecalis, BAA2365
Description: as §1

E. faecalis ATCC 29212 = test: microbe, parasite or virus in culture; conditions: Enterococcus faecalis, ATCC29212
[1] = test system: Listeria monocytogenes R2-583; test: microbe, parasite or virus in culture; conditions: R2583
S. aureus ATCC25923 = test: microbe, parasite or virus in culture; conditions: Staphylococcus aureus
S. aureus ATCC 29213 = test: microbe, parasite or virus in culture; conditions: Staphylococcus aureus, ATCC29213
[2] = test system: Enterobacter cloacae SBJ-9395; assay type: cell-based
Description: as §1

[3] = test system: Serratia marcescens SAMN 04276914; assay type: cell-based; conditions: Serratia marcescens SAMN 04276914
Description: as §1

[4] = test system: Serratia marcescens SAMN 04276915; assay type: cell-based; conditions: Serratia marcescens SAMN 04276915
Description: as §1

[5] = test system: Serratia marcescens SAMN04022954; assay type: cell-based; conditions: Serratia marcescens SAMN04022954
Description: as §1

[6] = test system: Serratia marcescens SBJ-8283; assay type: cell-based
Description: as §1

[7] = test system: Serratia marcescens SBJ-9047; assay type: cell-based
Description: as §1

[8] = test system: Salmonella enterica serovar Montevideo strain 29N; test: Spot-on-lawn bioactivity assay (zone of inhibition); assay type: cell-based; conditions: 10 μL spotted on lawn of 10^6 cells of S. Montevideo strain 29N, 24 hour incubation
E. coli ATCC 25853 = conditions: E. coli ATCC 25853
Salmonella Newport #17 = conditions: Salmonella Newport #17
[9] = test system: Enterobacter sakazakii E784; conditions: Enterobacter sakazakii E784
[10] = test system: Klebsiella pneumoniae SBJ-9149; conditions: Klebsiella pneumoniae SBJ-9149 (clinical isolate)
[11] = test system: Enterobacter cloacae SBJ-7612; conditions: Enterobacter cloacae SBJ-7612 (clinical isolate)
[12] = test system: Klebsiella pneumoniae SBJ-9483; conditions: Klebsiella pneumoniae SBJ-9483 (clinical isolate)
[13] = test system: Klebsiella pneumoniae SBJ-9388; conditions: Klebsiella pneumoniae SBJ-9388 (clinical isolate)
[14] = test system: Enterobacter cloacae SBJ-9222; conditions: Enterobacter cloacae SBJ-9222 (clinical isolate)
P. aeruginosa ATCC-27853 = conditions: P. aeruginosa ATCC-27853

CN[C@H](CC(C)C)C(=O)N[C@H]1C(=O)N[C@@H](CC(N)=O)C(=O)N[C@H]2C(=O)N[C@H]3C(=O)N[C@H](C(=O)N[C@H](C(=O)O)c4cc(O)cc(O)c4-c4cc3ccc4O)[C@H](O)c3ccc(c(Cl)c3)Oc3cc2cc(c3O[C@@H]2O[C@H](CO)[C@@H](O)[C@H](O)[C@H]2O[C@H]2C[C@](C)(N)[C@H](O)[C@H](C)O2)Oc2ccc(cc2Cl)[C@H]1O [Vancomycin, vancomycin, reference compound]
MIC (S. aureus 10; S. aureus 10 (MRSA, clinical isolate)): 1 µg/mL (≈ 0.69 µM) | MIC (S. aureus 10; Staphylococcus aureus, MRSA): 1 µg/mL (≈ 0.69 µM) | MIC (S. aureus 12; S. aureus 12 (MRSA, clinical isolate)): 1 µg/mL (≈ 0.69 µM) | MIC (S. aureus 12; Staphylococcus aureus, MRSA): 1 µg/mL (≈ 0.69 µM) | MIC (S. aureus 14; S. aureus 14 (MRSA, clinical isolate)): 1 µg/mL (≈ 0.69 µM) | MIC (S. aureus 14; Staphylococcus aureus, MRSA): 1 µg/mL (≈ 0.69 µM) | MIC (S. aureus 19; S. aureus 19 (MRSA, clinical isolate)): 1 µg/mL (≈ 0.69 µM) | MIC (S. aureus 19; Staphylococcus aureus, MRSA): 1 µg/mL (≈ 0.69 µM) | MIC (S. aureus 2; S. aureus 2 (MRSA, clinical isolate)): 1 µg/mL (≈ 0.69 µM) | MIC (S. aureus 2; Staphylococcus aureus, MRSA): 1 µg/mL (≈ 0.69 µM) | MIC (S. aureus 4; S. aureus 4 (MRSA, clinical isolate)): 1 µg/mL (≈ 0.69 µM) | MIC (S. aureus 4; Staphylococcus aureus, MRSA): 1 µg/mL (≈ 0.69 µM) | MIC (S. aureus 6; S. aureus 6 (MRSA, clinical isolate)): 1 µg/mL (≈ 0.69 µM) | MIC (S. aureus 6; Staphylococcus aureus, MRSA): 1 µg/mL (≈ 0.69 µM) | MIC (S. aureus 8; S. aureus 8 (MRSA, clinical isolate)): 1 µg/mL (≈ 0.69 µM) | MIC (S. aureus 8; Staphylococcus aureus, MRSA): 1 µg/mL (≈ 0.69 µM) | MIC (E. faecium ATCC 2320): ≥ 256 µg/mL | MIC (E. faecium ATCC 700221): ≥ 256 µg/mL | MIC (E. faecium BAA-2318): ≥ 256 µg/mL | MIC (E. faecalis ATCC 51575): ≥ 256 µg/mL | MIC (E. faecalis BAA-2365): ≥ 256 µg/mL | MIC (E. faecalis ATCC 29212): 2 µg/mL (≈ 1.38 µM) | MIC [1]: 1 µg/mL (≈ 0.69 µM) | MIC (S. aureus ATCC25923): 1 µg/mL (≈ 0.69 µM) | MIC (S. aureus ATCC 29213): 1 µg/mL (≈ 0.69 µM)

Polymyxin B [reference compound]
MIC ([2]; Enterobacter cloacae SBJ-9395): >128 µg/mL | MIC ([2]; Enterobacter cloacae SBJ-9395 (CRE, clinical isolate)): >128 µg/mL | MIC [3]: ≥256 µg/mL | MIC [4]: ≥256 µg/mL | MIC [5]: ≥256 µg/mL | MIC ([6]; Serratia marcescens SBJ-8283): >128 µg/mL | MIC ([6]; Serratia marcescens SBJ-8283 (CRE, clinical isolate)): >128 µg/mL | MIC ([7]; Serratia marcescens SBJ-9047): >128 µg/mL | MIC ([7]; Serratia marcescens SBJ-9047 (CRE, clinical isolate)): >128 µg/mL | minimum inhibitory concentration to show clear ZI [8]: 4 µg/mL | MIC (E. coli ATCC 25853): 0.5 µg/mL | MIC (Salmonella Newport #17): 1 µg/mL | MIC [9]: 0.5 µg/mL | MIC (E. coli O157: H7 EDL933): 0.5 µg/mL | MIC [10]: 0.5 µg/mL | MIC [11]: 1 µg/mL | MIC [12]: 0.5 µg/mL | MIC [13]: 0.5 µg/mL | MIC [14]: 1 µg/mL | MIC (P. aeruginosa ATCC-27853): 1 µg/mL
